Earlier results as cited in patent publication US6974665B2, “In situ screening to optimize variables in organic reactions” (University of Nebraska, priority 2001, dated 2005).

How the values were obtained:
cystathionine γ-synthase = molecular target: T1, cystathionine γ-synthase (Nicotiana tabacum, UniProt Q9ZPL5); conditions: tight-binding reversible inhibitor
T1 sequence (Q9ZPL5 79-540): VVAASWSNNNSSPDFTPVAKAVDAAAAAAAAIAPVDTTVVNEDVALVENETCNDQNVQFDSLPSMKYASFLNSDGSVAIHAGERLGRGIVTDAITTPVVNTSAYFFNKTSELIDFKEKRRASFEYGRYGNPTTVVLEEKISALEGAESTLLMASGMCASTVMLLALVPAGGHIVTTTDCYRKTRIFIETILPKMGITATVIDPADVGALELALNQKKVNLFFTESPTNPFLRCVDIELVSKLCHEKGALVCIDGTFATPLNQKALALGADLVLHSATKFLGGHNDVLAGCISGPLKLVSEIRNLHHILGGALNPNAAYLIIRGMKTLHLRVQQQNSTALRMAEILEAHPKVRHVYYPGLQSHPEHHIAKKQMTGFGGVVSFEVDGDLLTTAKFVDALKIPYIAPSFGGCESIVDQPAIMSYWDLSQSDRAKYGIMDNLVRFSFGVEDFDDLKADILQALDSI

threonine synthase = molecular target: T2, threonine synthase (Escherichia coli, UniProt P00934); conditions: irreversible inhibitor
T2 sequence (P00934 1-428): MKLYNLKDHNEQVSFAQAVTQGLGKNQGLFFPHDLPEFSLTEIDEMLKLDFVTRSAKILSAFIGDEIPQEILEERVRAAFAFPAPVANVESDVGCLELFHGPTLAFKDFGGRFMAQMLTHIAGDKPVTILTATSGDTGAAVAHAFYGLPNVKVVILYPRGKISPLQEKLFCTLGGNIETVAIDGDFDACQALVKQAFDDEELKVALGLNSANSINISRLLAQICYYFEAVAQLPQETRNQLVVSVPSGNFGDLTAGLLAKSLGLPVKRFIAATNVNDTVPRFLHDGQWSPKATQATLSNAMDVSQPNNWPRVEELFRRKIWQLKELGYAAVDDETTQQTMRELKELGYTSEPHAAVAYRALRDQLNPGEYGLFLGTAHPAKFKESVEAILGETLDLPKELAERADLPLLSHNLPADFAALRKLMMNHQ

For `NC(/C=C/CP(=O)(O)O)C(=O)O` (stereo not drawn) [APPA, (E)-2-Amino-5-phosphono-3-pentenoic Acid], the Ki (cystathionine γ-synthase) is listed as 27 µM, the Ki (threonine synthase) is listed as 400 µM and the kinact (threonine synthase) is listed as 0.25 min⁻¹.
